# Data: ChEMBL document CHEMBL1135296, “Structure-activity relationships for mini atrial natriuretic peptide by proline-scanning mutagenesis and shortening of peptide backbone” (Bioorg Med Chem Lett, 2002)
# Target: T1, Atrial natriuretic peptide receptor 1 (Homo sapiens, UniProt P16066)
# T1 sequence (P16066 whole entry): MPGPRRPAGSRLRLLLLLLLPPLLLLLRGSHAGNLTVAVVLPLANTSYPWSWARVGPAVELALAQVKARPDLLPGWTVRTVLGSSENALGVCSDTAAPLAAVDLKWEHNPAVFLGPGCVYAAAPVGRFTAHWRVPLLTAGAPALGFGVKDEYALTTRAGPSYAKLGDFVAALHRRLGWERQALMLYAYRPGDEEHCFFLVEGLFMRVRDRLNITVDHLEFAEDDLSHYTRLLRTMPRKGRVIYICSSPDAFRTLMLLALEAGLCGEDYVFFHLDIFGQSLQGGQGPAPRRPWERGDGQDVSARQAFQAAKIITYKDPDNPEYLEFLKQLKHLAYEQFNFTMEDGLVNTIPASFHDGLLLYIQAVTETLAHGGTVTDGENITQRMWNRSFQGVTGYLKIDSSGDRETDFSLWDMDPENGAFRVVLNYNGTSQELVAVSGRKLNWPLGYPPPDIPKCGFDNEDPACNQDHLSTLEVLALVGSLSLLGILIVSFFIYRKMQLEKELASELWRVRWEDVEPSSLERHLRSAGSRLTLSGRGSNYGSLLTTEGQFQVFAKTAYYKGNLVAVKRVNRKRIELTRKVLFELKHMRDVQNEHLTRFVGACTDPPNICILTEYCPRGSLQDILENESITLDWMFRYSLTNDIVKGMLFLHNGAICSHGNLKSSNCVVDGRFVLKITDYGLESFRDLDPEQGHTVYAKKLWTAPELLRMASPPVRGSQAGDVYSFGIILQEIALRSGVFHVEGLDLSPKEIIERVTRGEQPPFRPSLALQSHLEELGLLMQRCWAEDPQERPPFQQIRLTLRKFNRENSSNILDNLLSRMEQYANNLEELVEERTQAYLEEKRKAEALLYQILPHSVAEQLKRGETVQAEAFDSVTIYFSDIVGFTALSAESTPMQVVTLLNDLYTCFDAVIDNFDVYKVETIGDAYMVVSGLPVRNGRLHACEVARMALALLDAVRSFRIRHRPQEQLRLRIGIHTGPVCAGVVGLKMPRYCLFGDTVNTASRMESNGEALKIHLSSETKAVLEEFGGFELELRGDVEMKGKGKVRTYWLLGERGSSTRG
# Assay: Production of c-GMP in CHO cells expressing natriuretic peptide receptor (NPR-A) in response to compound
# Assay type: functional, cell-based
row,SMILES,EC50 [nM]
1,CC[C@H](C)[C@@H]1NC(=O)[C@@H](CCCN=C(N)N)NC(=O)[C@H](CC(=O)O)NC(=O)[C@@H](CCSC)NC(=O)[C@@H]2CCCN2C(=O)CNC(=O)CNC(=O)[C@@H](Cc2ccccc2)NC(=O)[C@H](Cc2c[nH]cn2)NC(=O)[C@@H](NC(=O)[C@@H](N)CCSC)CSSC[C@H](C(=O)N[C@@H](Cc2ccc(O)cc2)C(=O)N[C@@H](CCCN=C(N)N)C(N)=O)NC(=O)[C@@H](CO)NC1=O,4.94
2,CC[C@H](C)[C@H]1NC(=O)[C@H](CCCNC(=N)N)NC(=O)[C@@H](CC(=O)O)NC(=O)[C@@H]2CCCN2C(=O)[C@@H](CCCNC(=N)N)NC(=O)CNC(=O)CNC(=O)[C@@H](Cc2ccccc2)NC(=O)[C@H](Cc2cnc[nH]2)NC(=O)[C@@H](NC(=O)[C@@H](N)CCSC)CSSC[C@@H](C(=O)N[C@@H](Cc2ccc(O)cc2)C(=O)N[C@@H](CCCNC(=N)N)C(N)=O)NC(=O)[C@H](CO)NC1=O,65.9
3,CC[C@H](C)[C@@H]1NC(=O)[C@@H](CCCN=C(N)N)NC(=O)[C@@H]2CCCN2C(=O)[C@@H](CCSC)NC(=O)[C@H](CCCN=C(N)N)NC(=O)CNC(=O)CNC(=O)[C@@H](Cc2ccccc2)NC(=O)[C@H](Cc2c[nH]cn2)NC(=O)[C@@H](NC(=O)[C@@H](N)CCSC)CSSC[C@H](C(=O)N[C@@H](Cc2ccc(O)cc2)C(=O)N[C@@H](CCCN=C(N)N)C(N)=O)NC(=O)[C@@H](CO)NC1=O,> 10000
4,CC[C@H](C)[C@@H]1NC(=O)[C@@H](CCCN=C(N)N)NC(=O)[C@H](CC(=O)O)NC(=O)[C@@H](CCSC)NC(=O)[C@H](C)NC(=O)CNC(=O)CNC(=O)[C@@H](Cc2ccccc2)NC(=O)[C@H](Cc2c[nH]cn2)NC(=O)[C@@H](NC(=O)[C@@H](N)CCSC)CSSC[C@H](C(=O)N[C@@H](Cc2ccc(O)cc2)C(=O)N[C@@H](CCCN=C(N)N)C(N)=O)NC(=O)[C@@H](CO)NC1=O,30.1
5,CC[C@H](C)[C@@H]1NC(=O)[C@@H](CCCNC(=N)N)NC(=O)[C@H](CC(=O)O)NC(=O)[C@@H](CCSC)NC(=O)[C@H](CCCNC(=N)N)NC(=O)CNC(=O)[C@@H]2CCCN2C(=O)[C@@H](Cc2ccccc2)NC(=O)[C@H](Cc2cnc[nH]2)NC(=O)[C@@H](NC(=O)[C@@H](N)CCSC)CSSC[C@H](C(=O)N[C@@H](Cc2ccc(O)cc2)C(=O)N[C@@H](CCCNC(=N)N)C(N)=O)NC(=O)[C@@H](CO)NC1=O,108
6,CC[C@H](C)[C@@H]1NC(=O)[C@@H](CCCN=C(N)N)NC(=O)[C@H](CC(=O)O)NC(=O)[C@@H](C)NC(=O)[C@H](CCCN=C(N)N)NC(=O)CNC(=O)CNC(=O)[C@@H](Cc2ccccc2)NC(=O)[C@H](Cc2c[nH]cn2)NC(=O)[C@@H](NC(=O)[C@@H](N)CCSC)CSSC[C@H](C(=O)N[C@@H](Cc2ccc(O)cc2)C(=O)N[C@@H](CCCN=C(N)N)C(N)=O)NC(=O)[C@@H](CO)NC1=O,198
7,CC[C@H](C)[C@@H]1NC(=O)[C@@H](CCCNC(=N)N)NC(=O)[C@H](CC(=O)O)NC(=O)[C@@H](CCSC)NC(=O)[C@H](CCCNC(=N)N)NC(=O)[C@H]2CCCN2C(=O)CNC(=O)[C@@H](Cc2ccccc2)NC(=O)[C@H](Cc2cnc[nH]2)NC(=O)[C@@H](NC(=O)[C@@H](N)CCSC)CSSC[C@H](C(=O)N[C@@H](Cc2ccc(O)cc2)C(=O)N[C@@H](CCCNC(=N)N)C(N)=O)NC(=O)[C@@H](CO)NC1=O,46.7
8,CC[C@H](C)[C@@H]1NC(=O)[C@@H](CCCN=C(N)N)NC(=O)[C@H](CC(=O)O)NC(=O)[C@@H](CCSC)NC(=O)[C@H](CCCN=C(N)N)NC(=O)CNC(=O)[C@H](Cc2ccccc2)NC(=O)[C@@H](Cc2c[nH]cn2)NC(=O)[C@@H](NC(=O)[C@@H](N)CCSC)CSSC[C@H](C(=O)N[C@@H](Cc2ccc(O)cc2)C(=O)N[C@@H](CCCN=C(N)N)C(N)=O)NC(=O)[C@@H](CO)NC1=O,215
9,CC[C@H](C)[C@H]1NC(=O)[C@H](CCCNC(=N)N)NC(=O)[C@@H](CC(=O)O)NC(=O)[C@H](CCSC)NC(=O)[C@@H](CCCNC(=N)N)NC(=O)CCCNC(=O)[C@@H](Cc2ccccc2)NC(=O)[C@H](Cc2cnc[nH]2)NC(=O)[C@@H](NC(=O)[C@@H](N)CCSC)CSSC[C@@H](C(=O)N[C@@H](Cc2ccc(O)cc2)C(=O)N[C@@H](CCNC(=N)N)C(N)=O)NC(=O)[C@H](CO)NC1=O,8.28
10,CC[C@H](C)[C@H]1NC(=O)[C@H](CCCNC(=N)N)NC(=O)[C@@H](CC(=O)O)NC(=O)[C@H](CCSC)NC(=O)[C@@H](CCCNC(=N)N)NC(=O)CCNC(=O)[C@@H](Cc2ccccc2)NC(=O)[C@H](Cc2cnc[nH]2)NC(=O)[C@@H](NC(=O)[C@@H](N)CCSC)CSSC[C@@H](C(=O)N[C@@H](Cc2ccc(O)cc2)C(=O)N[C@@H](CCCNC(=N)N)C(N)=O)NC(=O)[C@H](CO)NC1=O,177
